Reference: US9593123B2, “Triazolo[4,5-D]pyrimidine derivatives” (Hoffmann-La Roche Inc., priority 2013, dated 2017)

Key:
human CB1 receptor = human CB1 receptor (Homo sapiens (Human), UniProt P21554); assay: cAMP assay, CHO cells expressing human CB1 receptors; type: cell-based; details: functional cAMP assay, read-out: CB1 hcAMP EC50
Protocol: (§1) CHO cells expressing human CB1 or CB2 receptors are seeded 17-24 hours prior to the experiment 50.000 cells per well in a black 96 well plate with flat clear bottom (Corning Costar #3904) in DMEM (Invitrogen No. 31331), 1×HT supplement, with 10% fetal calf serum and incubated at 5% CO2 and 37° C. in a humidified incubator. The growth medium was exchanged with Krebs Ringer Bicarbonate buffer with 1 mM IBMX and incubated at 30° C. for 30 min. Compounds were added to a final assay volume of 100 μl and incubated for 30 min at 30° C. Using the cAMP-Nano-TRF detection kit the assay (Roche Diagnostics) was stopped by the addition of 50 μl lysis reagent (Tris, NaCl, 1.5% Triton X100, 2.5% NP40, 10% NaN3) and 50 μl detection solutions (20 μM mAb Alexa700-cAMP 1:1, and 48 μM Ruthenium-2-AHA-cAMP) and shaken for 2 h at room temperature. The time-resolved energy transfer is measured by a TRF reader (Evotec Technologies GmbH), equipped with a ND:YAG laser as excitation source. The plate is measured twice with the excitation at 355 nm and at the emission with a delay of 100 ns and a gate of 100 ns, total exposure time 10 s at 730 (bandwidth 30 nm) or 645 nm (bandwidth 75 nm), respectively. The FRET signal is calculated as follows: FRET=T730-Alexa730-P(T645-B645) with P=Ru730-B730/Ru645-B645, where T730 is the test well measured at 730 nM, T645 is the test well measured at 645 nm, B730 and B645 are the buffer controls at 730 nm and 645 nm, respectively. cAMP content is determined from the function of a standard curve spanning from 10 μM to 0.13 nM cAMP.
(§2) EC50 values were determined using Activity Base analysis (ID Business Solution, Limited). The EC50 values for a wide range of cannabinoid agonists generated from this assay were in agreement with the values published in the scientific literature.

human CB2 receptor = human CB2 receptor (Homo sapiens (Human), UniProt P34972); assay: cAMP assay, CHO cells expressing human CB2 receptors; type: cell-based; details: functional cAMP assay, read-out: CB2 hcAMP EC50
Protocol: as §1, §2

human CB2 receptor, sequence (P34972 whole entry): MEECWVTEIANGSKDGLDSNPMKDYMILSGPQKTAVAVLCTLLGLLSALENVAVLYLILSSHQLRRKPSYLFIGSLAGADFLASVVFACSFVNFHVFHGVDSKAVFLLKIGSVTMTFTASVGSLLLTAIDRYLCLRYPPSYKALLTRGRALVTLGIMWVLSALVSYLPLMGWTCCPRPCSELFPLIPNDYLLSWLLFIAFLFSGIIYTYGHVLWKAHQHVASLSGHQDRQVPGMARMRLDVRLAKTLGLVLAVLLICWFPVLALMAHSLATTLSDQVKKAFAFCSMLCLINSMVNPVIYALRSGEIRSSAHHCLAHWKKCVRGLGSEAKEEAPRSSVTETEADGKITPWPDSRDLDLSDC
human CB1 receptor, sequence (P21554 whole entry): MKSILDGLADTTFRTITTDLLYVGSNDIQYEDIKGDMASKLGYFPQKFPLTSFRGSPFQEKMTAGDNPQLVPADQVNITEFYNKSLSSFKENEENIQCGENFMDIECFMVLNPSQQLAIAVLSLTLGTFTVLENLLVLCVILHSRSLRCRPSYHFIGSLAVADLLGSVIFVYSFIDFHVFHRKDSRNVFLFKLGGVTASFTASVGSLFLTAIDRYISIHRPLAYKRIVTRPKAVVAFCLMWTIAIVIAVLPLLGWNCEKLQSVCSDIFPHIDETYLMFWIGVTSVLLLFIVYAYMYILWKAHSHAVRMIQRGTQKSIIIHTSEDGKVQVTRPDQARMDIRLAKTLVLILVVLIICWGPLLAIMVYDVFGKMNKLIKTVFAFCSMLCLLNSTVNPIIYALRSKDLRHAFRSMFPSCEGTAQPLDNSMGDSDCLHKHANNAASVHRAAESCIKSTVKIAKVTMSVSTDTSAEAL

Row | Compound | EC50 (human CB1 receptor) | EC50 (human CB2 receptor)
1 | Cn1nnnc1Cn1nnc2c(N3CC[C@H](O)C3)nc(NC(C)(C)C)nc21 [Example 29, (3S)-1-[5-(tert-Butylamino)-3-[(1-methyltetrazol-5-yl)methyl]triazolo[4,5-d]pyrimidin-7-yl]pyrrolidin-3-ol] | > 10000 nM | 48.6 nM
2 | COc1ccc(Cn2nnc3c(N4CC[C@](C)(O)C4)nc(NC(C)(C)C)nc32)cc1 [Example 30, (3S)-1-[5-(tert-Butylamino)-3-[(4-methoxyphenyl)methyl]triazolo[4,5-d]pyrimidin-7-yl]-3-methylpyrrolidin-3-ol] | > 10000 nM | 89.9 nM
3 | COc1ccc(Cn2nnc3c(N4CC[C@@](C)(O)C4)nc(NC(C)(C)C)nc32)cc1 [Example 31, (3R)-1-[5-(tert-Butylamino)-3-[(4-methoxyphenyl)methyl]triazolo[4,5-d]pyrimidin-7-yl]-3-methylpyrrolidin-3-ol] | > 10000 nM | 56 nM
4 | C[C@]1(O)CCN(c2nc(N3CCOCC3)nc3c2nnn3Cc2ccccc2Cl)C1 [Example 32, (3S)-1-[3-[(2-Chlorophenyl)methyl]-5-morpholino-triazolo[4,5-d]pyrimidin-7-yl]-3-methyl-pyrrolidin-3-ol] | > 10000 nM | 9.6 nM
5 | C[C@]1(O)CCN(c2nc(N3CCOCC3)nc3c2nnn3Cc2ccccc2C(F)(F)F)C1 [Example 33, (3S)-3-Methyl-1-[5-morpholin-4-yl-3-[[2-(trifluoromethyl)phenyl]methyl]triazolo[4,5-d]pyrimidin-7-yl]pyrrolidin-3-ol] | > 10000 nM | 7.2 nM
6 | C[C@]1(O)CCN(c2nc(N3CCOCC3)nc3c2nnn3Cc2ncccc2Cl)C1 [Example 34, (3S)-1-[3-[(3-chloropyridin-2-yl)methyl]-5-morpholin-4-yltriazolo[4,5-d]pyrimidin-7-yl]-3-methylpyrrolidin-3-ol] | > 10000 nM | 45.3 nM
7 | Cc1noc(Cn2nnc3c(N4CC[C@](C)(O)C4)nc(N4CCOCC4)nc32)n1 [Example 35, (3S)-3-Methyl-1-[3-[(3-methyl-1,2,4-oxadiazol-5-yl)methyl]-5-morpholin-4-yltriazolo[4,5-d]pyrimidin-7-yl]pyrrolidin-3-ol] | > 10000 nM | 10.8 nM
8 | C[C@@]1(O)CCN(c2nc(N3CCOCC3)nc3c2nnn3Cc2ccccc2Cl)C1 [Example 36, (3R)-1-[3-[(2-Chlorophenyl)methyl]-5-morpholin-4-yltriazolo[4,5-d]pyrimidin-7-yl]-3-methylpyrrolidin-3-ol] | > 10000 nM | 220 nM
9 | C[C@@]1(O)CCN(c2nc(N3CCOCC3)nc3c2nnn3Cc2ccccc2C(F)(F)F)C1 [Example 37, (3R)-3-Methyl-1-[5-morpholin-4-yl-3-[[2-(trifluoromethyl)phenyl]methyl]triazolo[4,5-d]pyrimidin-7-yl]pyrrolidin-3-ol] | > 10000 nM | 23.6 nM
10 | C[C@@]1(O)CCN(c2nc(N3CCOCC3)nc3c2nnn3Cc2ccccc2S(C)(=O)=O)C1 [Example 38, (3R)-3-Methyl-1-[3-[(2-methylsulfonylphenyl)methyl]-5-morpholin-4-yltriazolo[4,5-d]pyrimidin-7-yl]pyrrolidin-3-ol] | > 10000 nM | 312 nM
11 | Cc1noc(Cn2nnc3c(N4CC[C@@](C)(O)C4)nc(N4CCOCC4)nc32)n1 [Example 39, (3R)-3-Methyl-1-[3-[(3-methyl-1,2,4-oxadiazol-5-yl)methyl]-5-morpholin-4-yltriazolo[4,5-d]pyrimidin-7-yl]pyrrolidin-3-ol] | > 10000 nM | 301 nM
12 | FC(F)(F)COc1nc(N2CCC(F)(F)C2)c2nnn(Cc3ccccc3Cl)c2n1 [Example 40, 3-[(2-Chlorophenyl)methyl]-7-(3,3-difluoropyrrolidin-1-yl)-5-(2,2,2-trifluoroethoxy) triazolo[4,5-d]pyrimidine] | > 10000 nM | 6.1 nM
13 | CC(Oc1nc(N2CCC(F)(F)C2)c2nnn(Cc3ccccc3Cl)c2n1)C(F)(F)F (stereo not shown) [Example 41, 3-[(2-Chlorophenyl)methyl]-7-(3,3-difluoropyrrolidin-1-yl)-5-(1,1,1-trifluoropropan-2-yloxy)triazolo[4,5-d]pyrimidine] | > 10000 nM | 8.5 nM
14 | C[C@H](Oc1nc(N2CCC(F)(F)C2)c2nnn(Cc3ccccc3Cl)c2n1)C(F)(F)F [Example 42, 3-[(2-Chlorophenyl)methyl]-7-(3,3-difluoropyrrolidin-1-yl)-5-[(2S)-1,1,1-trifluoropropan-2-yl]oxytriazolo[4,5-d]pyrimidine] | > 10000 nM | 3.3 nM
15 | FC(F)COc1nc(N2CCC(F)(F)C2)c2nnn(Cc3ccccc3Cl)c2n1 [Example 43, 3-[(2-Chlorophenyl)methyl]-5-(2,2-difluoroethoxy)-7-(3,3-difluoropyrrolidin-1-yl)triazolo[4,5-d]pyrimidine] | > 10000 nM | 26.4 nM
16 | CCOc1nc(N2CCC(F)(F)C2)c2nnn(Cc3ccccc3Cl)c2n1 [Example 44, 3-[(2-Chlorophenyl)methyl]-7-(3,3-difluoropyrrolidin-1-yl)-5-ethoxytriazolo[4,5-d]pyrimidine] | > 10000 nM | 4 nM
17 | CCCCOc1nc(N2CCC(F)(F)C2)c2nnn(Cc3ccccc3Cl)c2n1 [Example 45, 5-Butoxy-3-[(2-chlorophenyl)methyl]-7-(3,3-difluoropyrrolidin-1-yl)triazolo[4,5-d]pyrimidine] | > 10000 nM | 1.2 nM
18 | FCCOc1nc(N2CCC(F)(F)C2)c2nnn(Cc3ccccc3Cl)c2n1 [Example 46, 3-[(2-Chlorophenyl)methyl]-7-(3,3-difluoropyrrolidin-1-yl)-5-(2-fluoroethoxy) triazolo[4,5-d]pyrimidine] | > 10000 nM | 5.3 nM
19 | FC1(F)CCN(c2nc(OCC3CC3)nc3c2nnn3Cc2ccccc2Cl)C1 [Example 47, 3-[(2-Chlorophenyl)methyl]-5-(cyclopropylmethoxy)-7-(3,3-difluoropyrrolidin-1-yl)triazolo[4,5-d]pyrimidine] | > 10000 nM | 3.6 nM
20 | FC1(F)CCN(c2nc(OC3CCC3)nc3c2nnn3Cc2ccccc2Cl)C1 [Example 48, 3-[(2-Chlorophenyl)methyl]-5-cyclobutyloxy-7-(3,3-difluoropyrrolidin-1-yl)triazolo[4,5-d]pyrimidine] | > 10000 nM | 1.7 nM
21 | FC1(F)CCN(c2nc(OC3COC3)nc3c2nnn3Cc2ccccc2Cl)C1 [Example 49, 3-[(2-Chlorophenyl)methyl]-7-(3,3-difluoropyrrolidin-1-yl)-5-(oxetan-3-yloxy)triazolo [4,5-d]pyrimidine] | > 10000 nM | 21.9 nM
22 | CC1(COc2nc(N3CCC(F)(F)C3)c3nnn(Cc4ccccc4Cl)c3n2)COC1 [Example 50, 3-[(2-Chlorophenyl)methyl]-7-(3,3-difluoropyrrolidin-1-yl)-5-[(3-methyloxetan-3-yl)methoxy]triazolo[4,5-d]pyrimidine] | > 10000 nM | 2.8 nM
23 | C[C@@H](Oc1nc(N2CCC(F)(F)C2)c2nnn(Cc3ccccc3Cl)c2n1)C(F)(F)F [Example 51, 3-[(2-Chlorophenyl)methyl]-7-(3,3-difluoropyrrolidin-1-yl)-5-[(2R)-1,1,1-trifluoropropan-2-yl]oxytriazolo[4,5-d]pyrimidine] | > 10000 nM | 2.1 nM
